How the values were obtained:
[1] = The drug is tested on Z-023 corresponding to metagenome with ENA study accession number: PRJEB37062 and ENA sample accession number: ERS12561822 for biotransformation under anaerobic condition. The drug concentrations were measured over 9 timepoints collected between 0 and 24 hours of incubation by liquid-chromatography-coupled mass spectrometry (LC–MS); settings: 2 µM
[2] = The drug is tested on Z-021 corresponding to metagenome with ENA study accession number: PRJEB37062 and ENA sample accession number: ERS12561820 for biotransformation under anaerobic condition. The drug concentrations were measured over 9 timepoints collected between 0 and 24 hours of incubation by liquid-chromatography-coupled mass spectrometry (LC–MS); settings: 2 µM
[3] = The drug is tested on Z-016 corresponding to mouse gut metagenome with ENA study accession number: PRJEB37062 and ENA sample accession number: ERS12561815 for biotransformation under anaerobic condition. The drug concentrations were measured over 9 timepoints collected between 0 and 24 hours of incubation by liquid-chromatography-coupled mass spectrometry (LC–MS); settings: 2 µM
[4] = The drug is tested on Z-009 corresponding to pig gut metagenome with ENA study accession number: PRJEB37062 and ENA sample accession number: ERS12561809 for biotransformation under anaerobic condition. The drug concentrations were measured over 9 timepoints collected between 0 and 24 hours of incubation by liquid-chromatography-coupled mass spectrometry (LC–MS); settings: 2 µM
[5] = The drug is tested on Z-008 corresponding to metagenome with ENA study accession number: PRJEB37062 and ENA sample accession number: ERS12561808 for biotransformation under anaerobic condition. The drug concentrations were measured over 9 timepoints collected between 0 and 24 hours of incubation by liquid-chromatography-coupled mass spectrometry (LC–MS); settings: 2 µM
[6] = The drug is tested on WLS-370 corresponding to human gut metagenome with ENA study accession number: PRJEB37062 and ENA sample accession number: ERS12561793 for biotransformation under anaerobic condition. The drug concentrations were measured over 9 timepoints collected between 0 and 24 hours of incubation by liquid-chromatography-coupled mass spectrometry (LC–MS); settings: 2 µM
[7] = The drug is tested on WLS-220 corresponding to human gut metagenome with ENA study accession number: PRJEB37062 and ENA sample accession number: ERS12561769 for biotransformation under anaerobic condition. The drug concentrations were measured over 9 timepoints collected between 0 and 24 hours of incubation by liquid-chromatography-coupled mass spectrometry (LC–MS); settings: 2 µM
[8] = The drug is tested on WLS-170 corresponding to human gut metagenome with ENA study accession number: PRJEB37062 and ENA sample accession number: ERS12561762 for biotransformation under anaerobic condition. The drug concentrations were measured over 9 timepoints collected between 0 and 24 hours of incubation by liquid-chromatography-coupled mass spectrometry (LC–MS); settings: 2 µM
[9] = The drug is tested on WLS-086 corresponding to human gut metagenome with ENA study accession number: PRJEB37062 and ENA sample accession number: ERS12561752 for biotransformation under anaerobic condition. The drug concentrations were measured over 9 timepoints collected between 0 and 24 hours of incubation by liquid-chromatography-coupled mass spectrometry (LC–MS); settings: 2 µM
[10] = The drug is tested on WLS-082 corresponding to human gut metagenome with ENA study accession number: PRJEB37062 and ENA sample accession number: ERS12561751 for biotransformation under anaerobic condition. The drug concentrations were measured over 9 timepoints collected between 0 and 24 hours of incubation by liquid-chromatography-coupled mass spectrometry (LC–MS); settings: 2 µM
[11] = The drug is tested on WLS-077 corresponding to human gut metagenome with ENA study accession number: PRJEB37062 and ENA sample accession number: ERS12561750 for biotransformation under anaerobic condition. The drug concentrations were measured over 9 timepoints collected between 0 and 24 hours of incubation by liquid-chromatography-coupled mass spectrometry (LC–MS); settings: 2 µM
[12] = The drug is tested on WLS-006 corresponding to human gut metagenome with ENA study accession number: PRJEB37062 and ENA sample accession number: ERS12561741 for biotransformation under anaerobic condition. The drug concentrations were measured over 9 timepoints collected between 0 and 24 hours of incubation by liquid-chromatography-coupled mass spectrometry (LC–MS); settings: 2 µM
[13] = human gut metagenome, 24 h, 2 µM
[14] = human gut metagenome, 24 h, 2 µM; remark: listed apart in the source
[15] = human gut metagenome, 24 h, 2 µM; remark: listed apart in the source
[16] = human gut metagenome, 24 h, 2 µM; remark: listed apart in the source
[17] = human gut metagenome, 24 h, 2 µM; remark: listed apart in the source
[18] = human gut metagenome, 24 h, 2 µM; remark: listed apart in the source
[19] = human gut metagenome, 24 h, 2 µM; remark: listed apart in the source
[20] = human gut metagenome, 24 h, 2 µM; remark: listed apart in the source
Note: call rule not given here.

SMILES | Bacterial Biotransformation [1] | Bacterial Biotransformation [2] | Bacterial Biotransformation [3] | Bacterial Biotransformation [4] | Bacterial Biotransformation [5] | Bacterial Biotransformation [6] | Bacterial Biotransformation [7] | Bacterial Biotransformation [8] | Bacterial Biotransformation [9] | Bacterial Biotransformation [10] | Bacterial Biotransformation [11] | Bacterial Biotransformation [12] | Bacterial Biotransformation [13] | Bacterial Biotransformation [14] | Bacterial Biotransformation [15] | Bacterial Biotransformation [16] | Bacterial Biotransformation [17] | Bacterial Biotransformation [18] | Bacterial Biotransformation [19] | Bacterial Biotransformation [20]
N#Cc1ccc(C(c2ccc(C#N)cc2)n2cncn2)cc1 [LETROZOLE] | Compound metabolized | Compound metabolized | Compound NOT metabolized | Compound NOT metabolized | Compound NOT metabolized | Compound NOT metabolized | Compound NOT metabolized | Compound NOT metabolized | Compound NOT metabolized | Compound NOT metabolized | Compound NOT metabolized | Compound NOT metabolized | Compound NOT metabolized | Compound NOT metabolized | Compound NOT metabolized | Compound NOT metabolized | Compound NOT metabolized | Compound NOT metabolized | Compound NOT metabolized | Compound NOT metabolized
CC(Oc1c(Cl)cccc1Cl)C1=NCCN1 (stereo not given) [LOFEXIDINE] | Compound NOT metabolized | Compound NOT metabolized | Compound NOT metabolized | Compound NOT metabolized | Compound NOT metabolized | Compound NOT metabolized | Compound NOT metabolized | Compound metabolized | Compound metabolized | Compound NOT metabolized | Compound NOT metabolized | Compound NOT metabolized | Compound NOT metabolized | Compound NOT metabolized | Compound NOT metabolized | Compound metabolized | Compound metabolized | Compound NOT metabolized | Compound NOT metabolized | Compound metabolized
CN(C)C(=O)C(CCN1CCC(O)(c2ccc(Cl)cc2)CC1)(c1ccccc1)c1ccccc1 [LOPERAMIDE] | Compound metabolized | Compound NOT metabolized | Compound metabolized | Compound metabolized | Compound NOT metabolized | Compound metabolized | Compound metabolized | Compound metabolized | Compound metabolized | Compound metabolized | Compound metabolized | Compound metabolized | Compound metabolized | Compound metabolized | Compound metabolized | Compound metabolized | Compound metabolized | Compound metabolized | Compound metabolized | Compound metabolized
CCCCc1nc(Cl)c(CO)n1Cc1ccc(-c2ccccc2-c2nn[nH]n2)cc1 [LOSARTAN] | Compound metabolized | Compound NOT metabolized | Compound NOT metabolized | Compound NOT metabolized | Compound NOT metabolized | Compound metabolized | Compound metabolized | Compound metabolized | Compound metabolized | Compound metabolized | Compound NOT metabolized | Compound metabolized | Compound NOT metabolized | Compound metabolized | Compound metabolized | Compound metabolized | Compound metabolized | Compound metabolized | Compound NOT metabolized | Compound metabolized
COC(=O)Nc1nc2ccc(C(=O)c3ccccc3)cc2[nH]1 [MEBENDAZOLE] | Compound metabolized | Compound metabolized | Compound metabolized | Compound metabolized | Compound metabolized | Compound metabolized | Compound metabolized | Compound metabolized | Compound metabolized | Compound metabolized | Compound metabolized | Compound metabolized | Compound metabolized | Compound NOT metabolized | Compound metabolized | Compound metabolized | Compound metabolized | Compound metabolized | Compound metabolized | Compound metabolized
COc1ccccc1OCC(O)COC(N)=O (stereo not given) [METHOCARBAMOL] | Compound NOT metabolized | Compound NOT metabolized | Compound NOT metabolized | Compound NOT metabolized | Compound NOT metabolized | Compound NOT metabolized | Compound NOT metabolized | Compound NOT metabolized | Compound NOT metabolized | Compound NOT metabolized | Compound NOT metabolized | Compound NOT metabolized | Compound NOT metabolized | Compound NOT metabolized | Compound NOT metabolized | Compound NOT metabolized | Compound NOT metabolized | Compound NOT metabolized | Compound NOT metabolized | Compound NOT metabolized

— ChEMBL document CHEMBL5724914, “Linking interpersonal differences in gut microbiota composition and drug biotransformation activity” (2024)
